One molecule from US20030118577A1, “Use of analogues of superoxide dismutase for treating hepatocellular insufficiencies” (priority 2000, published 2003) can be followed below.

The subject of test [1] is acute hepatic insufficiency induced by acetaminophen. In words: Histological study of livers after acetaminophen. In kind it is in vivo. The note with it: mice which received acetaminophen, treated with MnTBAP. The source says: In each of the groups, the livers of several animals were removed, in order to carry out a histological study.
For test [2] the test system is unchanged. In words: Assay of serum transaminases ALAT and ASAT after acetaminophen. In kind it is in vivo, mice. The note with it: MnTBAP 10 mg/kg 2 h before, after 24 hours. The method, then:
The serum transaminases ALAT and ASAT are assayed 12 hours and 24 hours after the administration of acetaminophen.
Since the results risked being biased by the fact that the mice surviving 24 hours after the administration of acetaminophen were probably, regardless of the group involved, those which had the lowest transaminase activity, a second series of experiments were carried out, administering 500 mg/kg of acetaminophen, the other experimental conditions remaining the same. At this dosage, all the mice were still alive after 24 hours.
The results are illustrated by FIGS. 2A and 2B, which represent the ASAT and ALAT activity, respectively, according to the products administered.

As for `O=C(O)c1ccc(-c2c3nc(c(-c4ccc(C(=O)O)cc4)c4ccc([n-]4)c(-c4ccc(C(=O)O)cc4)c4nc(c(-c5ccc(C(=O)O)cc5)c5ccc2[n-]5)C=C4)C=C3)cc1.[Mn+3]` [MnTBAP, Mn(III) tetrakis(5,10,15,20-benzoic acid)porphyrin], in test [1], the “apoptotic lesions in liver, versus untreated animals” value is recorded as “a lot fewer apoptotic lesions”. Further, the “transaminase activities (ASAT, ALAT), fold lower than without MnTBAP” value in test [2] (acetaminophen 500 mg/kg (APAP500)) is reported as 10 fold; in test [2] (acetaminophen 1000 mg/kg (APAP1000)), 6 fold.
